The values that follow come from PubChem BioAssay (NCI).

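Dose response: 5 concentrations. Exposure: 48 h. Format: 96-well plates. Endpoint: linear interpolation; highest concentration if not reached. At the TGI there is no net growth.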

Some test systems named below: TK-10 renal; OVCAR-5 ovarian; M14 melanoma; ACHN renal; SF-268 CNS; A498 renal; SNB-75 CNS; HOP-92 NSCLC; HCT-15 colon; NCI-H226 lung; 786-0 renal; CAKI-1 renal; RXF 393 renal; SR leukemia.
Common to all, as to assay: growth of human tumour cells (NCI), 48 h

Consider `CN(C)C(=O)OC(Cn1cncn1)c1ccc(Cl)cc1Cl` (stereo not given), for which the TGI with TK-10 renal, in the assay on OVCAR-5 ovarian, in the assay with M14 melanoma, in the assay with ACHN renal, with SF-268 CNS and in the assay on A498 renal was greater than 100 µM in each case. Also, the TGI in the assay with SNB-75 CNS, in the assay on HOP-92 NSCLC, in the assay with HCT-15 colon, in the assay with NCI-H226 lung, in the assay on 786-0 renal and in the assay on CAKI-1 renal was greater than 100 µM in each case. This compound had a TGI in the assay with RXF 393 renal greater than 100 µM.
Turning to `CCc1ccccc1NC(=O)C(=O)CC(=O)c1sc(Nc2ccccc2)nc1C`, the TGI with TK-10 renal, in the assay on OVCAR-5 ovarian, in the assay on M14 melanoma, in the assay with ACHN renal, with SF-268 CNS and with A498 renal was greater than 100 µM each time. For the same compound, the TGI in the assay with SNB-75 CNS, in the assay with HOP-92 NSCLC, in the assay on HCT-15 colon, in the assay on NCI-H226 lung, with SR leukemia and in the assay with 786-0 renal was greater than 100 µM each time. Besides, the TGI in the assay on CAKI-1 renal and in the assay with RXF 393 renal was greater than 100 µM in each case.
As for `O=C(COc1ccc2c(=O)cc(-c3ccccc3)oc2c1)N1CCN(c2ccccc2)CC1`, the TGI with TK-10 renal, in the assay with OVCAR-5 ovarian, in the assay on M14 melanoma, in the assay with ACHN renal, with SF-268 CNS and with SNB-75 CNS was greater than 100 µM throughout. Besides, the TGI in the assay on HCT-15 colon, in the assay with NCI-H226 lung, in the assay with 786-0 renal and in the assay with RXF 393 renal was greater than 100 µM each time.
Consider `CSc1ccc(C2OC(=O)c3ccccc32)c2ccccc12` (stereo not given), for which the TGI in the assay on OVCAR-5 ovarian is greater than 100 µM; in the assay on M14 melanoma, greater than 100 µM; with ACHN renal, greater than 100 µM; in the assay with SF-268 CNS it was greater than 100 µM; in the assay with SNB-75 CNS, 61.2 µM; with HOP-92 NSCLC, greater than 100 µM. Besides, the TGI in the assay on HCT-15 colon, in the assay with SR leukemia, in the assay with 786-0 renal, with CAKI-1 renal and in the assay with RXF 393 renal was greater than 100 µM throughout.
In the case of `O=C1[C@H]2ON(c3ccccc3)C(c3ccccc3Cl)[C@H]2C(=O)N1c1ccc(Cc2ccc(N3C(=O)[C@@H]4ON(c5ccccc5)C(c5ccccc5Cl)[C@@H]4C3=O)cc2)cc1` (stereo not given in full), the TGI is greater than 100 µM in the assay with TK-10 renal; greater than 100 µM in the assay on OVCAR-5 ovarian; 73.5 µM in the assay on M14 melanoma; greater than 100 µM in the assay on ACHN renal; greater than 100 µM in the assay on SF-268 CNS; greater than 100 µM with A498 renal. Moreover, the TGI in the assay on SNB-75 CNS, with HOP-92 NSCLC, with HCT-15 colon, with NCI-H226 lung, in the assay on SR leukemia and in the assay with 786-0 renal was greater than 100 µM throughout. Further, in the assay on CAKI-1 renal, the TGI was greater than 100 µM.
As for `CC(C)[C@H]1CO[C@]2(C)[C@@H]3CN(Cc4ccccc4)C[C@@H]3C(=O)N12`, the TGI with TK-10 renal, in the assay with M14 melanoma, in the assay with ACHN renal, with SF-268 CNS, in the assay on SNB-75 CNS and in the assay on HOP-92 NSCLC was greater than 100 µM in each case. For the same compound, the TGI with HCT-15 colon, in the assay with NCI-H226 lung, in the assay with SR leukemia, in the assay with 786-0 renal, in the assay with CAKI-1 renal and with RXF 393 renal was greater than 100 µM throughout.
Regarding `COc1ccc(C2=Nc3ccccc3NC(=O)C2)cc1`, the TGI in the assay on TK-10 renal is 66.4 µM; in the assay on OVCAR-5 ovarian, greater than 100 µM; in the assay with M14 melanoma it was greater than 100 µM; with ACHN renal, greater than 100 µM; in the assay with SF-268 CNS, 78.1 µM; with A498 renal, greater than 100 µM. The TGI with SNB-75 CNS was 57.3 µM; with HOP-92 NSCLC it was 54 µM; with HCT-15 colon, greater than 100 µM; in the assay with NCI-H226 lung, greater than 100 µM; in the assay on SR leukemia it was greater than 100 µM; with 786-0 renal it was greater than 100 µM. For the same compound, the TGI was greater than 100 µM with CAKI-1 renal and 46.2 µM in the assay on RXF 393 renal.
In the case of `Cc1csc(=S)n1OC(=O)NC1CCCCC1`, the TGI with TK-10 renal, with M14 melanoma, in the assay with ACHN renal, in the assay on SF-268 CNS, in the assay on A498 renal and in the assay with SNB-75 CNS was greater than 100 µM each time. The TGI was greater than 100 µM with HOP-92 NSCLC; greater than 100 µM in the assay with HCT-15 colon; greater than 100 µM with NCI-H226 lung; 47.3 µM in the assay with SR leukemia; greater than 50 µM with 786-0 renal; greater than 100 µM in the assay with CAKI-1 renal. Moreover, the TGI with RXF 393 renal was greater than 100 µM.
Consider `Nn1c(NNC(=O)C(=O)Nc2cc(Cl)c(Cl)cc2Cl)n[nH]c1=S`, for which the TGI in the assay with TK-10 renal, in the assay with OVCAR-5 ovarian, in the assay on M14 melanoma, with ACHN renal, in the assay on SF-268 CNS and with A498 renal was greater than 100 µM each time. Besides, the TGI in the assay with SNB-75 CNS, with HOP-92 NSCLC, with HCT-15 colon, in the assay with NCI-H226 lung, in the assay on 786-0 renal and with CAKI-1 renal was greater than 100 µM each time. This compound showed a TGI in the assay with RXF 393 renal greater than 100 µM.
Consider `NC1C[C@H](n2cc(/C=C/Br)c(=O)[nH]c2=O)C[C@@H]1CO` (stereo not given in full), for which the TGI with TK-10 renal, in the assay on M14 melanoma, with ACHN renal, with SF-268 CNS, with A498 renal and in the assay on SNB-75 CNS was greater than 100 µM each time. Moreover, the TGI with HCT-15 colon, in the assay with NCI-H226 lung, with 786-0 renal and in the assay with RXF 393 renal was greater than 100 µM in each case.
As for `Cc1c(/C=N/NC(=O)c2cc(Br)cc(Br)c2O)c(=O)n(-c2ccccc2)n1C`, the TGI in the assay with TK-10 renal, with OVCAR-5 ovarian, in the assay with M14 melanoma, in the assay on ACHN renal, with SF-268 CNS and in the assay with A498 renal was greater than 100 µM in each case. Also, the TGI with SNB-75 CNS is greater than 100 µM; with HOP-92 NSCLC, greater than 100 µM; in the assay with HCT-15 colon, greater than 100 µM; in the assay with NCI-H226 lung, greater than 100 µM; with 786-0 renal, greater than 100 µM; in the assay with CAKI-1 renal, 94.2 µM.
